Data: patent US11192867B2, “Microbiocidal oxadiazole derivatives” (SYNGENTA PARTICIPATIONS AG, priority 2016, dated 2021)

Columns and labels:
Phakopsora pachyrhizi = assay: Fungicidal activity against Phakopsora pachyrhizi / soybean / leaf disc preventative (Asian soybean rust); format: in vivo; details: foliar, 200 ppm in the applied formulation, soybean leaf disks, vs untreated control, read-out: disease control
Experimental: Leaf disks or leaf segments of various plant species are cut from plants grown in a greenhouse. The cut leaf disks or segments are placed in multiwell plates (24-well format) onto water agar. The leaf disks are sprayed with a test solution before (preventative) or after (curative) inoculation. Compounds to be tested are prepared as DMSO solutions (max. 10 mg/ml) which are diluted to the appropriate concentration with 0.025% Tween20 just before spraying. The inoculated leaf disks or segments are incubated under defined conditions (temperature, relative humidity, light, etc.) according to the respective test system. A single evaluation of disease level is carried out 3 to 14 days after inoculation, depending on the pathosystem. Percent disease control relative to the untreated check leaf disks or segments is then calculated. Soybean leaf disks are placed on water agar in multiwell plates (24-well format) and sprayed with the formulated test compound diluted in water. One day after application leaf discs are inoculated by spraying a spore suspension on the lower leaf surface. After an incubation period in a climate cabinet of 24-36 hours in darkness at 20° C. and 75% rh leaf disc are kept at 20° C. with 12 hours light/12 hours and 75% rh. The activity of a compound is assessed as percent disease control compared to untreated when an appropriate level of disease damage appears in untreated check leaf disks (12 to 14 days after application). The following compounds at 200 ppm in the applied formulation give at least 80% disease control in this test when compared to untreated control leaf disks under the same conditions, which show extensive disease development.

[1] = tested on: Glomerella lagenarium (Colletotrichum lagenarium); assay: Fungicidal activity against Glomerella lagenarium (Colletotrichum lagenarium) liquid culture / cucumber / preventative (anthracnose); format: cell-based; details: Colletotrichum orbiculare, 72 h; 20 ppm in the applied formulation; liquid culture (PDB), growth inhibition measured photometrically 3 to 4 days after application; vs untreated control; read-out: disease control
Experimental: Mycelia fragments or conidia suspensions of a fungus prepared either freshly from liquid cultures of the fungus or from cryogenic storage, are directly mixed into nutrient broth. DMSO solutions of the test compound (max. 10 mg/ml) are diluted with 0.025% Tween20 by a factor of 50 and 10 μl of this solution is pipetted into a microtiter plate (96-well format). The nutrient broth containing the fungal spores/mycelia fragments is then added to give an end concentration of the tested compound. The test plates are incubated in the dark at 24° C. and 96% relative humidity. The inhibition of fungal growth is determined photometrically after 2 to 7 days, depending on the pathosystem, and percent antifungal activity relative to the untreated check is calculated.
Conidia of the fungus from cryogenic storage are directly mixed into nutrient broth (PDB—potato dextrose broth). After placing a (DMSO) solution of test compound into a microtiter plate (96-well format), the nutrient broth containing the fungal spores is added. The test plates are incubated at 24° C. and the inhibition of growth is measured photometrically 3 to 4 days after application.
The following compounds at 20 ppm in the applied formulation give at least 80% disease control in this test when compared to untreated control under the same conditions, which show extensive disease development.

[2] = tested on: Puccinia recondita f. sp. Tritici; assay: Fungicidal activity against Puccinia recondita f. sp. Tritici / wheat / leaf disc preventative (brown rust); format: in vivo; details: foliar, 200 ppm in the applied formulation, wheat leaf segments cv. Kanzler, inoculated 1 day after application, vs untreated control, read-out: disease control
Experimental: Leaf disks or leaf segments of various plant species are cut from plants grown in a greenhouse. The cut leaf disks or segments are placed in multiwell plates (24-well format) onto water agar. The leaf disks are sprayed with a test solution before (preventative) or after (curative) inoculation. Compounds to be tested are prepared as DMSO solutions (max. 10 mg/ml) which are diluted to the appropriate concentration with 0.025% Tween20 just before spraying. The inoculated leaf disks or segments are incubated under defined conditions (temperature, relative humidity, light, etc.) according to the respective test system. A single evaluation of disease level is carried out 3 to 14 days after inoculation, depending on the pathosystem. Percent disease control relative to the untreated check leaf disks or segments is then calculated. Wheat leaf segments cv. Kanzler were placed on agar in multiwell plates (24-well format) and sprayed with the formulated test compound diluted in water. The leaf disks were inoculated with a spore suspension of the fungus 1 day after application. The inoculated leaf segments were incubated at 19° C. and 75% relative humidity (rh) under a light regime of 12 hours light/12 hours darkness in a climate cabinet and the activity of a compound was assessed as percent disease control compared to untreated when an appropriate level of disease damage appears in untreated check leaf segments (7 to 9 days after application). The following compounds at 200 ppm in the applied formulation give at least 80% disease control in this test when compared to untreated control leaf disks under the same conditions, which show extensive disease development.

| SMILES | pest or weed control at 200 ppm (Phakopsora pachyrhizi) [%] | inhibition of growth at 20 ppm [1] [%] | pest or weed control at 200 ppm [2] [%] |
| --- | --- | --- | --- |
| CC(C=NOCc1ccccc1Cl)NC(=O)c1ccc(-c2noc(C(F)(F)F)n2)cc1 (stereo not shown) [Compound 1.22, N-[2-[(2-chlorophenyl)methoxyimino]-1-methyl-ethyl]-4-[5-(trifluoromethyl)-1,2,4-oxadiazol-3-yl]benzamide] | ≥ 80 | ≥ 80 |  |
| COc1ccccc1CON=CC(C)NC(=O)c1ccc(-c2noc(C(F)(F)F)n2)cc1 (stereo not shown) [Compound 1.23, N-[2-[(2-methoxyphenyl)methoxyimino]-1-methyl-ethyl]-4-[5-(trifluoromethyl)-1,2,4-oxadiazol-3-yl]benzamide] | ≥ 80 |  |  |
| CC(C=NOCc1ccccc1F)NC(=O)c1ccc(-c2noc(C(F)(F)F)n2)cc1 (stereo not shown) [Compound 1.24, N-[2-[(2-fluorophenyl)methoxyimino]-1-methyl-ethyl]-4-[5-(trifluoromethyl)-1,2,4-oxadiazol-3-yl]benzamide] | ≥ 80 | ≥ 80 |  |
| CCCON=CC(C)NC(=O)c1ccc(-c2noc(C(F)(F)F)n2)cc1 (stereo not shown) [Compound 1.27, N-(1-methyl-2-propoxyimino-ethyl)-4-[5-(trifluoromethyl)-1,2,4-oxadiazol-3-yl]benzamide] | ≥ 80 | ≥ 80 |  |
| CC(C=NOCC=C(Cl)Cl)NC(=O)c1ccc(-c2noc(C(F)(F)F)n2)cc1 (stereo not shown) [Compound 1.34, N-[2-(3,3-dichloroallyl-oxyimino)-1-methyl-ethyl]-4-[5-(trifluoromethyl)-1,2,4-oxadiazol-3-yl]benzamide] | ≥ 80 | ≥ 80 |  |
| CC(C=NOCc1ccccc1)NC(=O)c1ccc(-c2noc(C(F)(F)F)n2)cc1 (stereo not shown) [Compound 1.47, N-(2-benzyloxyimino-1-methyl-ethyl)-4-[5-(trifluoromethyl)-1,2,4-oxadiazol-3-yl]benzamide] | ≥ 80 | ≥ 80 |  |
| CC(C=NOCC(F)(F)F)NC(=O)c1ccc(-c2noc(C(F)(F)F)n2)cc1 (stereo not shown) [Compound 1.51, N-[1-methyl-2-(2,2,2-trifluoroethoxy-imino)ethyl]-4-[5-(trifluoromethyl)-1,2,4-oxadiazol-3-yl]benzamide] | ≥ 80 | ≥ 80 |  |
| CC(C=NOCc1ccc(F)cc1)NC(=O)c1ccc(-c2noc(C(F)(F)F)n2)cc1 (stereo not shown) [Compound 1.52, N-[2-[(4-fluorophenyl)methoxyimino]-1-methyl-ethyl]-4-[5-(trifluoromethyl)-1,2,4-oxadiazol-3-yl]benzamide] | ≥ 80 | ≥ 80 |  |
| CC(C=NOCC1CC1)NC(=O)c1ccc(-c2noc(C(F)(F)F)n2)cc1 (stereo not shown) [Compound 1.57, N-[2-(cyclopropyl-methoxyimino)-1-methyl-ethyl]-4-[5-(trifluoromethyl)-1,2,4-oxadiazol-3-yl]benzamide] | ≥ 80 | ≥ 80 |  |
| CC(C=NOCc1ccc(Cl)cc1)NC(=O)c1ccc(-c2noc(C(F)(F)F)n2)cc1 (stereo not shown) [Compound 1.59, N-[2-[(4-chlorophenyl)methoxyimino]-1-methyl-ethyl]-4-[5-(trifluoromethyl)-1,2,4-oxadiazol-3-yl]benzamide] | ≥ 80 |  |  |
| Cc1ccc(CON=CCNC(=O)c2ccc(-c3noc(C(F)(F)F)n3)cc2)cc1 [Compound 1.63, N-[2-(p-tolylmethoxy-imino)ethyl]-4-[5-(trifluoromethyl)-1,2,4-oxadiazol-3-yl]benzamide] | ≥ 80 |  |  |
| CCCCCCCCCCCCON=CCNC(=O)c1ccc(-c2noc(C(F)(F)F)n2)cc1 [Compound 1.73, N-(2-dodecoxyimino-ethyl)-4-[5-(trifluoromethyl)-1,2,4-oxadiazol-3-yl]benzamide] | ≥ 80 |  |  |
| O=C(NCC=NOCc1c(Cl)cccc1Cl)c1ccc(-c2noc(C(F)(F)F)n2)cc1 [Compound 1.84, N-[2-[(2,6-dichlorophenyl)methoxyimino]ethyl]-4-[5-(trifluoromethyl)-1,2,4-oxadiazol-3-yl]benzamide] | ≥ 80 |  |  |
| CCCCON=CCNC(=O)c1ccc(-c2noc(C(F)(F)F)n2)cc1 [Compound 1.85, N-(2-butoxyiminoethyl)-4-[5-(trifluoromethyl)-1,2,4-oxadiazol-3-yl]benzamide] | ≥ 80 | ≥ 80 |  |
| O=C(NCC=NOCc1ccc(F)cc1)c1ccc(-c2noc(C(F)(F)F)n2)cc1 [Compound 1.96, N-[2-[(4-fluorophenyl)methoxyimino]ethyl]-4-[5-(trifluoromethyl)-1,2,4-oxadiazol-3-yl]benzamide] |  | ≥ 80 |  |
| O=C(NCC=NOCc1cccc(Cl)c1)c1ccc(-c2noc(C(F)(F)F)n2)cc1 [Compound 1.97, N-[2-[(3-chlorophenyl)methoxyimino]ethyl]-4-[5-(trifluoromethyl)-1,2,4-oxadiazol-3-yl]benzamide] |  |  | ≥ 80 |
| O=C(NCC=NOCc1ccc(Cl)cc1)c1ccc(-c2noc(C(F)(F)F)n2)cc1 [Compound 1.103, N-[2-[(4-chlorophenyl)methoxyimino]ethyl]-4-[5-(trifluoromethyl)-1,2,4-oxadiazol-3-yl]benzamide] |  |  | ≥ 80 |
| CC(CNC(=O)c1ccc(-c2noc(C(F)(F)F)n2)cc1)=NOCc1ccc([N+](=O)[O-])cc1 [Compound 1.105, N-[2-[(4-nitrophenyl)methoxyimino]propyl]-4-[5-(trifluoromethyl)-1,2,4-oxadiazol-3-yl]benzamide] |  |  | ≥ 80 |
| COc1ccc(CON=C(C)CNC(=O)c2ccc(-c3noc(C(F)(F)F)n3)cc2)cc1 [Compound 1.108, N-[2-[(4-methoxyphenyl)methoxyimino]propyl]-4-[5-(trifluoromethyl)-1,2,4-oxadiazol-3-yl]benzamide] |  | ≥ 80 |  |
| COc1ccccc1CON=C(C)CNC(=O)c1ccc(-c2noc(C(F)(F)F)n2)cc1 [Compound 1.112, N-[2-[(2-methoxyphenyl)methoxyimino]propyl]-4-[5-(trifluoromethyl)-1,2,4-oxadiazol-3-yl]benzamide] |  | ≥ 80 |  |
| CCCCON=C(C)CNC(=O)c1ccc(-c2noc(C(F)(F)F)n2)cc1 [Compound 1.128, N-(2-butoxyiminopropyl)-4-[5-(trifluoromethyl)-1,2,4-oxadiazol-3-yl]benzamide] | ≥ 80 | ≥ 80 |  |
| CC(CNC(=O)c1ccc(-c2noc(C(F)(F)F)n2)cc1)=NOCc1ccccc1 [Compound 1.134, N-(2-benzyloxyimino-propyl)-4-[5-(trifluoromethyl)-1,2,4-oxadiazol-3-yl]benzamide] | ≥ 80 | ≥ 80 |  |
| CC(CNC(=O)c1ccc(-c2noc(C(F)(F)F)n2)cc1)=NOCc1ccc(F)cc1 [Compound 1.140, N-[2-[(4-fluorophenyl)methoxyimino]propyl]-4-[5-(trifluoromethyl)-1,2,4-oxadiazol-3-yl]benzamide] |  | ≥ 80 |  |
